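Step 1: Grow cells in 96-well plates. Step 2: Expose to compound for 48 hours at 5 concentrations. Step 3: Interpolate endpoints linearly; if unreached, use highest concentration. GI50 is the concentration that inhibits growth by half.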 The source made the active and inactive calls. Rule as the data show it: active = GI50 up to about 1.1 µM and inactive = higher.
What was measured:
Test in all cases: NCI tumour cell line growth inhibition, 48 h
UACC-62 = tested on: UACC-62
SNB-19 = tested on: SNB-19
OVCAR-3 = tested on: OVCAR-3
NCI-H460 = tested on: NCI-H460
NCI/ADR-RES = tested on: NCI/ADR-RES
MDA-MB-435 = tested on: MDA-MB-435
786-0 = tested on: 786-0
U-251 = tested on: U-251
A549 = tested on: A549
SF-268 = tested on: SF-268
ACHN = tested on: ACHN
NCI-H226 = tested on: NCI-H226
M14 = tested on: M14
NCI-H522 = tested on: NCI-H522
SNB-75 = tested on: SNB-75
HT-29 = tested on: HT-29
EKVX = tested on: EKVX
OVCAR-5 = tested on: OVCAR-5
K562 = tested on: K562

Measured: GI50

O=C(O)Cn1cnc2c(O)nc(Nc3ccccc3)nc21
inactive: UACC-62 > 100 µM | SNB-19 > 100 µM | OVCAR-3 > 100 µM | NCI-H460 > 100 µM | NCI/ADR-RES > 100 µM | MDA-MB-435 > 100 µM | 786-0 > 100 µM | U-251 > 100 µM | A549 > 100 µM | SF-268 > 100 µM | ACHN > 100 µM | NCI-H226 > 100 µM | M14 > 100 µM | NCI-H522 > 100 µM | SNB-75 > 100 µM | HT-29 > 100 µM | EKVX > 100 µM | OVCAR-5 > 100 µM

O=C(Cn1c(C(=O)c2ccccc2)nc2ccccc21)c1ccccc1
inactive: UACC-62 > 56.6 µM | SNB-19 > 100 µM | OVCAR-3 > 100 µM | NCI-H460 > 90.6 µM | NCI/ADR-RES > 100 µM | MDA-MB-435 3.72 µM | 786-0 > 63.8 µM | U-251 > 77.1 µM | A549 > 96.4 µM | SF-268 > 100 µM | ACHN > 100 µM | NCI-H226 > 100 µM | M14 > 100 µM | NCI-H522 > 58.3 µM | SNB-75 > 100 µM | HT-29 19.2 µM | EKVX > 100 µM | OVCAR-5 > 100 µM

Cc1ccc(S(=O)(=O)N2CC2CCCCC=O)cc1 (stereo not drawn)
inactive: UACC-62 50.7 µM | SNB-19 > 100 µM | OVCAR-3 > 100 µM | K562 32.6 µM | NCI/ADR-RES > 100 µM | MDA-MB-435 > 100 µM | 786-0 40.6 µM | U-251 27.4 µM | A549 > 100 µM | SF-268 > 100 µM | ACHN 31.3 µM | NCI-H226 > 100 µM | M14 51.3 µM | NCI-H522 72.8 µM | SNB-75 > 100 µM | HT-29 26.8 µM | EKVX > 100 µM | OVCAR-5 > 100 µM

Cn1c(=O)oc2cc(Br)ccc21
inactive: UACC-62 > 100 µM | SNB-19 > 100 µM | OVCAR-3 > 100 µM | NCI-H460 > 100 µM | K562 > 100 µM | NCI/ADR-RES > 100 µM | MDA-MB-435 > 100 µM | 786-0 > 100 µM | A549 > 100 µM | SF-268 > 100 µM | ACHN > 100 µM | NCI-H226 > 100 µM | M14 > 100 µM | NCI-H522 > 100 µM | SNB-75 > 100 µM | HT-29 > 100 µM | EKVX 91.4 µM | OVCAR-5 > 100 µM

[N-]=[N+]=Nc1c(Cl)c(Cl)nc2ccccc12
inactive: UACC-62 > 100 µM | SNB-19 > 100 µM | OVCAR-3 34.5 µM | NCI-H460 > 100 µM | K562 81.3 µM | NCI/ADR-RES > 100 µM | MDA-MB-435 > 100 µM | 786-0 > 100 µM | A549 > 100 µM | SF-268 > 100 µM | ACHN 91.4 µM | NCI-H226 66.7 µM | M14 > 100 µM | NCI-H522 71.3 µM | SNB-75 44.8 µM | HT-29 > 100 µM | EKVX 92.7 µM | OVCAR-5 > 100 µM

COC(=O)C1=C(O)C(C(=O)OC)[C@]2(O)[C@H](C(=O)OC)[C@H]1C[C@@H](c1cccc(OC)c1)[C@H]2C(=O)OC (stereo partly drawn)
inactive: UACC-62 16.9 µM | SNB-19 25.9 µM | NCI-H460 22.2 µM | K562 28.4 µM | NCI/ADR-RES 29.4 µM | MDA-MB-435 17.5 µM | 786-0 20.7 µM | U-251 24.2 µM | A549 23.6 µM | SF-268 26.1 µM | ACHN 20.4 µM | NCI-H226 28.8 µM | M14 29.7 µM | NCI-H522 6.1 µM | SNB-75 27.5 µM | HT-29 34.9 µM | EKVX 29.5 µM | OVCAR-5 24.9 µM

CCOC(=O)C1C(=O)CC(O)(OCC)C(C(=O)OCC)C1c1ccc(OC)cc1 (stereo not drawn)
inactive: UACC-62 > 100 µM | SNB-19 > 100 µM | OVCAR-3 > 100 µM | NCI-H460 > 100 µM | K562 > 100 µM | NCI/ADR-RES > 100 µM | MDA-MB-435 > 100 µM | 786-0 > 100 µM | U-251 > 100 µM | A549 > 100 µM | SF-268 > 100 µM | ACHN > 100 µM | NCI-H226 > 100 µM | NCI-H522 > 100 µM | SNB-75 > 100 µM | HT-29 > 100 µM | EKVX > 100 µM | OVCAR-5 > 100 µM

Cc1nc(C(N)=S)sc1C(=O)CC(=O)C(=O)Nc1nc2ccccc2[nH]1
inactive: UACC-62 > 100 µM | OVCAR-3 > 100 µM | NCI-H460 > 100 µM | K562 > 100 µM | NCI/ADR-RES > 100 µM | MDA-MB-435 > 100 µM | 786-0 > 100 µM | U-251 > 100 µM | A549 > 100 µM | SF-268 > 100 µM | ACHN > 100 µM | NCI-H226 11.5 µM | M14 > 100 µM | NCI-H522 > 100 µM | SNB-75 > 100 µM | HT-29 > 100 µM | EKVX > 100 µM | OVCAR-5 > 100 µM

O=[N+]([O-])c1ccc2c3c1[C@@H]1O[C@@H]1c1cccc(c1-3)[C@@H]1O[C@H]21
inactive: UACC-62 7.14 µM | SNB-19 14.6 µM | OVCAR-3 3.05 µM | K562 4.2 µM | NCI/ADR-RES 4.91 µM | MDA-MB-435 2.08 µM | 786-0 2.47 µM | U-251 4.08 µM | A549 6.76 µM | SF-268 2.56 µM | ACHN 1.94 µM | NCI-H226 26.6 µM | M14 3.24 µM | NCI-H522 1.67 µM | SNB-75 5.68 µM | HT-29 3.48 µM | EKVX 6.35 µM | OVCAR-5 13.6 µM

CC(=O)C1C(=O)C(=O)N(c2ccc([N+](=O)[O-])cc2[N+](=O)[O-])C1=O (stereo not drawn)
inactive: UACC-62 > 100 µM | SNB-19 > 100 µM | OVCAR-3 > 100 µM | NCI-H460 > 100 µM | NCI/ADR-RES > 100 µM | MDA-MB-435 > 100 µM | 786-0 > 100 µM | U-251 > 100 µM | A549 > 100 µM | SF-268 > 100 µM | ACHN > 100 µM | NCI-H226 > 100 µM | M14 > 100 µM | NCI-H522 > 100 µM | SNB-75 > 100 µM | HT-29 > 100 µM | EKVX 56.5 µM | OVCAR-5 > 100 µM

NNS(=O)(=O)c1cc(C(=O)O)cc(C(=O)O)c1
inactive: UACC-62 > 100 µM | SNB-19 > 100 µM | OVCAR-3 > 100 µM | NCI-H460 > 100 µM | K562 > 100 µM | NCI/ADR-RES > 100 µM | MDA-MB-435 > 100 µM | 786-0 > 100 µM | U-251 > 100 µM | A549 > 100 µM | SF-268 > 100 µM | ACHN > 100 µM | NCI-H226 > 100 µM | M14 > 100 µM | NCI-H522 > 100 µM | HT-29 > 100 µM | EKVX > 100 µM | OVCAR-5 > 100 µM
